Key:
Type in all cases: in vivo
Mycosphaerella fijiensis = assay: Grand Nain (Musa) leaf piece assay, control of black sigatoka; conditions: Grand Nain leaf pieces, strain 1×10^8 CFU/ml, mancozeb 10 ppm
Experimental: (§1) For detached-leaf assays performed in the following examples, bacterial strains stored in a freezer (−80° C.) were each streaked onto Luria Bertani (LB) agar (25 g LB broth and 15 g agar per liter of deionized water) in an 8.5-cm diameter plastic plate. A single colony from the plate was picked and placed in 50 ml of either LB liquid broth or a liquid broth consisting of NaCl (5 g), tryptone (10 g), nutrient broth (8 g), CaCl2 (0.14 mM), MgCl2·6H2O (0.2 mM), and MnCl2·4H2O (0.01 mM) per liter of deionized water in a 250-ml flask. Calcium chloride (CaCl2), MgCl2, and MnCl2 were filtered sterilized using 0.22 μm vacuum filter and were then added to NaCl, tryptone, nutrient broth (which were autoclaved together). Cultures were harvested after 48 h by pelleting cells and re-suspending to original volume in sterile H2O. Colony forming units (CFU/mL) were determined using standard dilution plate count method, and plates were inspected for signs of contamination. Sterile distilled water was added to achieve a final concentration needed in detached-leaf or growth chamber strain evaluations. […]
Data recorded were the most progressed stage on inoculated leaves, 3 to 4 weeks after inoculation (Stover 1986). Data were analyzed using analysis of variance (ANOVA) in PROC GLM of SAS (version 9.4; SAS Institute Inc., Cary, NC) and significant differences (P<0.05) were observed among treatments.

[1] = system: Colletotrichum sublineolum; assay: Detached sorghum leaf piece assay, control of anthracnose; conditions: sorghum leaf pieces, strain 1×10^8 CFU/ml, pyraclostrobin 10 ppm
Experimental: as §1
Seven days post inoculation, the leaf pieces were assessed for anthracnose severity on a scale of 0-4 according to Prom et al., 2016 (Plant Path J. 15(1): 11-16), with few modifications. […] Data was analyzed using analysis of variance (ANOVA) in JMP® (version 14.0.0; SAS Institute Inc., Cary, NC). […]

Podosphaera xanthii [2] = assay: Squash leaf disc assay, control of powdery mildew on cucurbits; conditions: squash leaf discs, bacterial suspension 200 μL, tebuconazole 10 ppm
Experimental: as §1, with “contamination.” for “contamination. Sterile distilled water was added to achieve a final concentration needed in detached-leaf or growth chamber strain evaluations.”
Leaf disks were inoculated on the treated leaf surface by spraying a conidial suspension (1×10^6 conidia/ml of sterile distilled water) of P. xanthii (an isolate obtained from Dr. McGrath laboratory, Cornell University). […] The number of powdery mildew colonies were also recorded for each treatment. […] Data was analyzed in SAS JMP version 14.0.

Podosphaera xanthii [3] = assay: Squash leaf disc assay with wettable powder formulations, control of powdery mildew; conditions: squash leaf discs, 150 μL, tebuconazole 10 ppm as control
Experimental: For the tray drying method, 829 grams of cell paste obtained from a liquid culture of ATP15329 was mixed with 18.24 g of glycerol and 72.95 g of microcel E using a food processor. Half of the cell paste was dried at 40° C. to a water activity of less than 0.30, at which time it contained 3.53E11 CFU/g. The other half was dried at 25° C. and 50% RH to a water activity of less than 0.6, at which time it contained 4.75E11 CFU/g. The dried powder formulation was stored in heat sealed mylar pouches at 4° C.
For the spray drying method, 200 grams of cell paste obtained from a liquid culture of ATP15329 was mixed with 22 g of skim milk powder using an emulsion blender. This material was spray dried at outlet temperature of 70° C., at which time it contained 7.86E10 CFU/g. The dried powder formulation was stored in heat sealed mylar pouches at 4° C.
This evaluation followed the protocol used in Example 3. Briefly, leaf disks were each sprayed with 150 μL of different formulations of the bacterial strain AIP015329, tebuconazole 10 ppm (fungicide control) on the adaxial surface 24 hours before inoculation with the fungal pathogen. After treatment, leaf disks were incubated in the dark for 24 hours at 23° C.
Leaf disks were inoculated on the treated leaf surface by spraying a conidial suspension (1×10^6 conidia/ml of sterile distilled water) of P. xanthii. Inoculated and non-inoculated/not treated controls were added. Treatments were placed into sealed clear plastic boxes and incubated for six days at 25° C. with a relative humidity of 80% and a 12 h photoperiod. Each treatment was rated on a disease severity scale from 0 to 4, with 0 being no symptoms and 4 being greater than 50% of the leaf disk covered with colonies. The number of powdery mildew colonies were also recorded for each treatment. This experiment was run once, with each treatment replicated three times. Data was analyzed in SAS JMP version 14.0.

## mancozeb
Mycosphaerella fijiensis; 3 to 4 weeks after inoculation
  Disease Control (%) Primary Screen: 92.3 (a) %
Mycosphaerella fijiensis; confirmation
  Disease Control (%) Confirmation: 81.0 (a) %

## COC(=O)N(OC)c1ccccc1COc1ccn(-c2ccc(Cl)cc2)n1 [Pyraclostrobin]
[1]; confirmation screen with freshly grown culture
  Disease Control (%) Confirmation: 79.2 (a) %
[1]; treated 24 h before inoculation, rated 7 days post inoculation
  Disease Control (%) Primary Screen: 95.2 (a) %

## CC(C)(C)C(O)(CCc1ccc(Cl)cc1)Cn1cncn1 (stereo not drawn) [Tebuconazole, tebuconazole]
Podosphaera xanthii [2]; confirmation
  Disease Control (%) Confirmation: 75.0 (a) %
Podosphaera xanthii [2]; treated 24 h before inoculation, six days incubation
  Disease Control (%) Primary Screen: 87.5 (a) %
Podosphaera xanthii [3]; spray dried formulation of the strain
  Disease Control (%) Spray dry: 96.0 (a) %
Podosphaera xanthii [3]; tray dried formulation dried at 25° C.
  Disease Control (%) Tray dry Dried at 25° C.: 96.0 (a) %
Podosphaera xanthii [3]; tray dried formulation dried at 40° C.
  Disease Control (%) Tray dry Dried at 40° C.: 96.0 (a) %
